Source: the supplement of paper PMC10307832

Assays:
Experiment in all cases: relative viability (nuclei count vs DMSO), 5 days (fraction); higher = more cells survive
[1] = compound: COc1nc(N)nc2c1ncn2[C@@H]1O[C@H](CO)[C@@H](O)[C@@H]1O [Nelarabine] + CC(=O)Nc1cccc(-n2c(=O)n(C3CC3)c(=O)c3c(Nc4ccc(I)cc4F)n(C)c(=O)c(C)c32)c1 [Trametinib] (partner 0.02 µM)
Summary of the method: (§1)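 Each reported value is a median over duplicate plates. It expresses relative viability: treated-well nuclei count divided by vehicle-well nuclei count. Lung cancer cell lines in 1536-well plates were dosed by pin tool a day after seeding, alone with one drug or with a fixed anchor-drug dose plus five library-drug doses (not always all listed) in √10 steps, and nuclei were counted after 5 days.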

[2] = compound: C=CCn1c(=O)c2cnc(Nc3ccc(N4CCN(C)CC4)cc3)nc2n1-c1cccc(C(C)(C)O)n1 [Adavosertib] + CC(=O)c1c(C)c2cnc(Nc3ccc(N4CCNCC4)cn3)nc2n(C2CCCC2)c1=O [Palbociclib] (partner 0.5 µM)
Summary of the method: as §1

[3] = compound: COc1nc(N)nc2c1ncn2[C@@H]1O[C@H](CO)[C@@H](O)[C@@H]1O [Nelarabine] + CS(=O)(=O)N1CCN(Cc2cc3nc(-c4cccc5[nH]ncc45)nc(N4CCOCC4)c3s2)CC1 [Pictilisib] (partner 1 µM)
Summary of the method: as §1

[4] = compound: COc1nc(N)nc2c1ncn2[C@@H]1O[C@H](CO)[C@@H](O)[C@@H]1O [Nelarabine] + CC(=O)c1c(C)c2cnc(Nc3ccc(N4CCNCC4)cn3)nc2n(C2CCCC2)c1=O [Palbociclib] (partner 0.5 µM)
Summary of the method: as §1

Row | Cell Line | relative viability ([1]; first compound 0.01 µM) | relative viability ([1]; first compound 0.03162 µM) | relative viability ([1]; first compound 0.1 µM) | relative viability ([1]; first compound 0.3162 µM) | relative viability ([1]; first compound 1 µM) | relative viability ([2]; first compound 0.01 µM) | relative viability ([2]; first compound 0.03162 µM) | relative viability ([2]; first compound 0.1 µM) | relative viability ([2]; first compound 0.3162 µM) | relative viability ([3]; first compound 0.01 µM) | relative viability ([3]; first compound 0.03162 µM) | relative viability ([3]; first compound 0.1 µM) | relative viability ([3]; first compound 0.3162 µM) | relative viability ([3]; first compound 1 µM) | relative viability ([4]; first compound 0.01 µM) | relative viability ([4]; first compound 0.03162 µM) | relative viability ([4]; first compound 0.1 µM) | relative viability ([4]; first compound 0.3162 µM) | relative viability ([4]; first compound 1 µM)
1 | NCI-H727 | 0.377 | 0.43 | 0.358 | 0.35 | 0.321 | 0.584 | 0.699 | 0.637 | 0.658 | 0.581 | 0.476 | 0.348 | 0.397 | 0.302 | 0.659 | 0.602 | 0.663 | 0.624 | 0.608
2 | NCI-H2009 | 0.28 | 0.224 | 0.215 | 0.287 | 0.266 | 0.195 | 0.2 | 0.258 | 0.215 | 1.31 | 0.917 | 0.841 | 1.03 | 0.93 | 0.194 | 0.206 | 0.203 | 0.161 | 0.192
3 | LC-2-ad | 1.09 | 1.01 | 0.922 | 0.993 | 0.899 | 0.535 | 0.467 | 0.55 | 0.519 | 0.624 | 0.467 | 0.428 | 0.482 | 0.468 | 0.525 | 0.495 | 0.475 | 0.544 | 0.522
4 | NCI-H2085 | 0.391 | 0.518 | 0.514 | 0.612 | 0.544 | 0.479 | 0.458 | 0.519 | 0.577 | 0.462 | 0.372 | 0.536 | 0.46 | 0.455 | 0.479 | 0.437 | 0.479 | 0.459 | 0.431
5 | NCI-H661 | 0.651 | 0.718 | 0.628 | 0.668 | 0.756 | 0.424 | 0.449 | 0.464 | 0.451 | 0.345 | 0.362 | 0.462 | 0.388 | 0.354 | 0.386 | 0.401 | 0.402 | 0.403 | 0.422
6 | H3255 | 0.713 | 0.706 | 0.619 | 0.651 | 0.806 | 0.317 | 0.341 | 0.333 | 0.32 | 0.534 | 0.494 | 0.456 | 0.394 | 0.477 | 0.327 | 0.292 | 0.311 | 0.315 | 0.355
7 | NCI-H1793 | 0.474 | – | 0.421 | 0.424 | 0.466 | 0.293 | 0.293 | 0.298 | 0.275 | 0.367 | 0.35 | 0.293 | 0.314 | 0.256 | 0.353 | – | 0.316 | 0.398 | 0.318
8 | NCI-H441 | 0.432 | 0.482 | 0.469 | 0.446 | 0.466 | 0.234 | 0.25 | 0.241 | 0.197 | 0.488 | 0.376 | 0.543 | 0.461 | 0.582 | 0.194 | 0.188 | 0.202 | 0.192 | 0.192
9 | NCI-H838 | 0.572 | 0.586 | 0.473 | 0.621 | 0.575 | 0.232 | 0.211 | 0.224 | 0.213 | 0.481 | 0.331 | 0.428 | 0.474 | 0.438 | 0.267 | 0.244 | 0.226 | 0.242 | 0.253
10 | NCI-H460 | 0.124 | 0.213 | 0.0809 | 0.259 | 0.164 | 0.182 | 0.19 | 0.181 | 0.125 | 0.408 | 0.431 | 0.379 | 0.407 | 0.337 | 0.212 | 0.213 | 0.144 | 0.162 | 0.181
11 | NCI-H1650 | 0.513 | 0.694 | 0.462 | 0.818 | 0.562 | 0.295 | 0.34 | 0.289 | 0.293 | 0.742 | 0.666 | 0.476 | 0.559 | 0.591 | 0.255 | 0.317 | 0.337 | 0.32 | 0.266
12 | PC-14 | 0.894 | 0.87 | 0.766 | 0.844 | 0.774 | 0.508 | 0.577 | 0.516 | 0.0749 | 1.17 | 0.759 | 0.563 | 0.815 | 0.653 | 0.705 | 0.53 | 0.582 | 0.601 | 0.706
13 | LXF-289 | 0.714 | 0.74 | 0.673 | 0.667 | 0.73 | 0.576 | 0.619 | 0.656 | 0.735 | 0.739 | 0.841 | 0.845 | 0.801 | 0.751 | 0.708 | 0.548 | 0.62 | 0.625 | 0.59
14 | UMC-11 | 0.855 | 0.659 | 0.755 | 0.767 | 0.843 | 0.326 | 0.339 | 0.348 | 0.351 | 1.05 | 0.729 | 0.874 | 1.02 | 0.898 | 0.361 | 0.269 | 0.318 | 0.332 | 0.351
15 | A-427 | 0.835 | 0.772 | 0.728 | 0.721 | 0.773 | 0.517 | 0.567 | 0.538 | 0.52 | 0.928 | 0.749 | 0.745 | 0.716 | 0.714 | 0.528 | 0.533 | 0.56 | 0.533 | 0.53
16 | LOU-NH91 | 0.856 | 0.731 | 0.769 | 0.804 | 0.794 | 0.609 | 0.497 | 0.548 | 0.531 | 0.515 | 0.464 | 0.487 | 0.527 | 0.54 | 0.576 | 0.47 | 0.524 | 0.618 | 0.578
17 | RERF-LC-KJ | 1.03 | 1 | 0.934 | 0.986 | 0.862 | 0.977 | 1.07 | 1.14 | 1.03 | 0.582 | 0.652 | 0.559 | 0.578 | 0.422 | 1.13 | 1.17 | 1.09 | 1.17 | 0.97
